Here are results for one compound from patent publication US20080261945A1, “Compounds Having Activity at Nk3 Receptor and Uses Thereof in Medicine” (SMITHKLINE BEECHAM CORPORATION, priority 2004, published 2008).

The test concerns the target T1, NK3 receptor (Homo sapiens, UniProt P29371).
T1 construct: expressed in transfected cells; host or cells: CHO cell lines (plasma membrane preparation)
T1 sequence (P29371 1-465): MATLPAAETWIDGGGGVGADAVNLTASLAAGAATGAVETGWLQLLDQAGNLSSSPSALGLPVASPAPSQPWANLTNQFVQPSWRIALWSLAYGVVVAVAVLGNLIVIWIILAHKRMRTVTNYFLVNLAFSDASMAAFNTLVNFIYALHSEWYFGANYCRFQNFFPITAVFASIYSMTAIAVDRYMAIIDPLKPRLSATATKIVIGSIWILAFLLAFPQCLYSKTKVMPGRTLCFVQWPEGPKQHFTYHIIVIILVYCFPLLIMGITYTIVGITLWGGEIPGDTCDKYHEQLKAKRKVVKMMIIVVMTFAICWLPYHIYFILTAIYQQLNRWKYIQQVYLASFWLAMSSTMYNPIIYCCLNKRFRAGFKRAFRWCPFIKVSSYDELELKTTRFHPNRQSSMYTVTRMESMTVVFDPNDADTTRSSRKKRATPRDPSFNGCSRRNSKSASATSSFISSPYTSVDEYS
As to the kind of experiment: NK3 binding affinity, scintillation proximity assay (SPA). As to conditions: 125I [MePhe7]-NKB; plasma membrane from CHO cell lines expressing NK3 receptors. The method, then: The NK3 binding affinity of the compounds of the invention was determined using the following scintillation proximity assay (SPA) (see H. M. Sarau et al, J. Pharmacol. Experimental Therapeutics 1997, 281(3), 1303-1311; H. M. Sarau et al, J. Pharmacol. Experimental Therapeutics 2000, 295(1), 373-381; G. A. M. Giardina et al J. Med. Chem. 1999, 42, 1053-1065). Polystyrene Leadseeker WGA-SPA beads (Amersham Biosciences) were mixed with plasma membrane prepared from CHO cell lines expressing NK3 receptors in a bead/membrane ratio of 20:1 (w/w) in assay buffer (75 mM Tris pH 7.8, 75 mM NaCl, 4 mM MnCl2, 1 mM EDTA, 0.05% Chaps, 1 mM PMSF). The mixture was placed on ice for 20 minutes to allow the formation of membrane/bead complex before BSA was added to a final concentration of 1%. After another 20 minutes incubation on ice, the bead/membrane complex was washed twice and suspended in assay buffer. ^125I [MePhe7]-NKB was then added to the bead/membrane complex. […] After 2-3 hours incubation at room temperature with shaking, the plates were spun for 2 min at 1100 rpm and measured in Viewlux imager (PerkinElmer) for 5 minutes with a 618-nm filter. Inhibition of the radioactive ligand binding to the NK3 receptor was measured by the reduction of signal. pKi was calculated using Kd of the radioactive ligand determined in a separate experiment.
In general terms: SPA uses beads or plates that emit light when radiolabelled molecules are held near them.

Broadly, the Ki is a measure of affinity in units of concentration, obtained from inhibition or displacement.

`CC[C@H](NC(=O)c1c(COC[C@@H]2CCCN2C)c(-c2ccccc2)nc2ccccc12)c1ccccc1` [Example 1, 3-[({[(2S)-1-Methyl-2-pyrrolidinyl]methyl}oxy)methyl]-2-phenyl-N-[(1S)-1-phenylpropyl]-4-quinolinecarboxamide]: the affinity corresponds to a Ki of 6.31 nM.
